Test results taken from patent US9796659B2, “Derivatives of polyhydroxy compounds” (RATIOPHARM GMBH, priority 2014, dated 2017).
Where a name gives a salt, the structure may show the parent alone.

Experiments:
in vitro = settings: human; for recovery at 90 min, 250 μM / recovery at 90 min: Caco-2, Recovery [%] mean ± s.d.
Method: (§1) The membrane permeability was investigated in Caco-2 monolayers. DMF was investigated in a separate experiment for comparison.
(§2) […] The test concentration in the apical medium was 250 μM. […] Furthermore, a significant metabolism or degradation of the test compound was expected and therefore the parent compound as well as MMF was determined in the acceptor compartment (basolateral medium). Sampling time points were 15, 45 and 90 min.

Caco-2 monolayers = assay: in vitro; settings: for permeability category compared to the reference molecules: Caco-2
Method: as §1, §2

[1] = test system: MOG35-55-induced experimental autoimmune encephalomyelitis (EAE); assay: MOG35-55-induced experimental autoimmune encephalomyelitis (EAE) in the mouse; format: in vivo, male C57BL/6 mice; settings: prophylactic treatment from day 1; observations day 1 to 13; dose formulation 11.54 mM, 10 ml/kg
Method: The pharmacological efficacy was investigated in experimental autoimmune encephalomyelitis (EAE) in the mouse.
The experiments were performed as follows: male C57BL/6 mice, 12 weeks old, 10 animals per treatment group, were used. On day 1, animals were immunized by sub-cutaneous injection of MOG35-55, which was mixed in complete Freund's adjuvants. On the same day as well as on day 3 the animals received a sub-cutaneous injection of Pertussis-toxin.
Assessment and comparison of the efficacy of compounds of the invention and DMF (reference) in MOG35-55-induced experimental autoimmune encephalomyelitis (EAE) in C57BL/6 mice. • Test system: male C57BL/6 mice, 12 weeks old; 10 animals per treatment group; • Induction of EAE: Day 1—subcutaneous injection of MOG35-55, suspended in complete Freund's adjuvants and intraperitoneal injection of pertussis toxin. • Day 3—intraperitoneal injection of pertussis toxin. • Treatment: Dimethylfumarate and test substances or vehicle only were administered via oral and intravenous route. For oral administration, test substances were dissolved or suspended in 0.5% hydroxyethylcellulose (dissolved in 50 mM potassium dihydrogenphosphate, pH 5.0). […]

[2] = In vivo pharmacokinetics of MMF after p.o. administration; design: species or system female NMRI mice; settings: female, NMRI, mouse, po, 49.4 mg/kg
Method: The pharmacokinetics of MMF after administration of Example 7 and DMF for comparison was investigated in female NMRI mice (3 animals per group). The test compound was dissolved in DMSO/PEG300 (20/80) and administered p.o. (gavage) at a dose volume of 10 ml/kg. DMF was given at a dose of 45 mg/kg. The test compound was dosed at a MMF-equivalent dose, i.e. 49.4 mg/kg. Blood samples were taken at 0.25, 0.5, 1.0, 2.0, 4.0, 6.0 and 8.0 h after drug administration.
Pharmacokinetic parameters, derived by non-compartmental analysis for test compound

[3] = Caco-2, Papp × 10^−6 [cm/sec] mean ± s.d.

COC(=O)/C=C/C(=O)OC [DMF, Dimethyl fumarate]
Papp A→B at 90 min, 250 μM (in vitro; [3]): 1.8 ± 0.2 ×10⁻⁶ cm/s
recovery at 90 min, 250 μM (in vitro): 11.6%
permeability category compared to the reference molecules (Caco-2 monolayers): moderate permeability
body weight [1]: remained stable
clinical symptoms (clinical score, grade 0-10) [1]: protected from the development of clinical symptoms

CC[C@H]1OC(=O)[C@H](C)[C@@H](O[C@H]2C[C@@](C)(OC)[C@@H](O)[C@H](C)O2)[C@H](C)[C@@H](O[C@@H]2O[C@H](C)C[C@H](N(C)C)[C@H]2O)[C@](C)(O)C[C@@H](C)C(=O)[C@H](C)[C@@H](O)[C@]1(C)O [Erythromycin, erythromycin]
efflux ratio at 90 min (in vitro; Caco-2, Efflux ratio (b-a/a-b)): 55.9
Papp A→B at 90 min, 250 μM (in vitro; [3]): 0.2 ± 0.02 ×10⁻⁶ cm/s
Papp B→A at 90 min (in vitro; [3]): 12.3 ± 0.4 ×10⁻⁶ cm/s
recovery at 90 min (in vitro): 99.9 ± 2.4%
recovery at 90 min, 250 μM (in vitro): 108 ± 2.2%
Efflux ratio (b-a/a-b) (Caco-2 monolayers; human, Caco-2, 90 min): 100.8
Papp × 10^−6 [cm/sec] mean ± s.d. (Caco-2 monolayers; human, Caco-2, 90 min): 11.5 ± 0.5 10^−6 cm/sec
Recovery [%] mean ± s.d. (Caco-2 monolayers; human, Caco-2, 90 min): 89.1 ± 8.5%
Papp × 10^−6 [cm/sec] mean ± s.d. (Caco-2 monolayers; human, Caco-2, 90 min, 250 μM): 0.1 ± 0.2 10^−6 cm/sec
Recovery [%] mean ± s.d. (Caco-2 monolayers; human, Caco-2, 90 min, 250 μM): 91.0 ± 1.9%

COC(=O)/C=C/C(=O)OCC(O)COC(=O)/C=C/C(=O)OC [Example 7, (E)-But-2-enedioic acid 2-hydroxy-3-((E)-3-methoxycarbonyl-acryloyloxy)-propyl ester methyl ester]
Tmax of MMF [2]: 15 min
Papp A→B at 90 min, 250 μM (in vitro; [3]): 2.5 ± 0.2 ×10⁻⁶ cm/s
recovery at 90 min, 250 μM (in vitro): 18.3%
permeability category compared to the reference molecules (Caco-2 monolayers): moderate permeability

C[C@]12CC[C@H]3[C@@H](CCC4=CC(=O)CC[C@@]43C)[C@@H]1CC[C@@H]2O [Testosterone, testosterone]
recovery at 90 min, 250 μM (in vitro; direction a-b): 67.3 ± 1.2%
recovery at 90 min (in vitro; direction b-a): 94.9 ± 0.9%
Recovery [%] mean ± s.d. (Caco-2 monolayers; direction a-b): 62.5 ± 2.1%
Recovery [%] mean ± s.d. (Caco-2 monolayers; direction b-a): 76.1 ± 4.5%
